Test results as given in patent US20030194750A1, “Methods for treatment of diseases where GSK 3-beta is desired, and methods to identify compounds usefule for that” (priority 2002, published 2003).
Where a name gives a salt, the structure may show the parent alone.

Legend:
GSK3β = assay: Western blot of GSK3β-phospho-ser9 in SW480 cells; format: cell-based, human; settings: various concentrations, 48 hours, vs 0 concentration
Experimental: (§1) 50 μg protein/lane were analyzed by Western blot analysis using specific anti-PKG1β and anti-GSK3β-phospho-ser9 antibodies.

PKG1β = assay: Western blot of PKG1β in SW480 cells; format: cell-based, human; settings: various concentrations, 48 hours
Experimental: as §1

[1] = target: T1, GST-cGB-PDE5 fusion protein (Homo sapiens, UniProt O76074); assay: cGMP binding assay with GST-cGB-PDE5 fusion protein; settings: for competition with cGMP for the cGMP binding sites: 3H-cGMP 2 μM, 22° C., 1 hour
T1 construct: made in house; host or cells: E. coli BL21 (DE3)
Experimental: 5′-3′, Inc. kits for total RNA followed by oligo (dT) column purification of mRNA are used with HT-29 cells. […] It is then cloned into pGEX-5X-3 glutathione-S-transferase (GST) fusion vector (Pharmacia Biotech) with tac promoter, and EcoRI and XhoI cut sites. The fusion vector is then transfected into E. Coli BL21 (DE3) bacteria (Invitrogen). The transfected BL21 bacteria is grown to log phase, and then IPTG is added as an inducer. The induction is carried at 20° C. for 24 hrs. The bacteria are harvested and lysed. The soluble cell lysate is incubated with GSH conjugated Sepharose 4B (GSH-Sepharose 4B). The GST-cGB-PDE5 fusion protein can bind to the GSH-Sepharose beads, and the other proteins are washed off from beads with excessive cold PBS.
Then, the mixture is transferred to Brandel MB-24 cell harvester with GF/B as the filter membrane followed by 2 washes with 10 mL of cold 5 mM potassium buffer( pH 6.8). The membranes are then cut out and transferred to scintillation vials followed by the addition of 1 mL of H2O and 6 mL of Ready Safe™ liquid scintillation cocktail to each vial. The vials are counted on a Beckman LS 6500 scintillation counter.
The quenching by filter membrane or other debris are also calibrated.

PDE 5 = PDE 5 (Homo sapiens, UniProt O76074); assay: Competitive (with cGMP) binding to PDE5
PDE1 = assay: PDE inhibition, similar protocols; format: biochemical
PDE4 = assay: PDE inhibition, similar protocols; format: biochemical
rats [2] = assay: Acute toxicity study in rats; settings: rat, in vivo
dogs [3] = assay: Acute and seven-dose toxicity in dogs; settings: dog, in vivo
Experimental: Therefore, these dogs were subsequently administered seven consecutive doses of 1000 mg/kg/day.

rats [4] = assay: Seven-day dose-range finding study in rats; format: in vivo, rat; settings: 7 days
rats [5] = assay: 28-day study in rats; format: in vivo, rat
Experimental: A 28-day study in rats was also carried out at 0, 50, 500 and 2000 mg/kg/day.

rats [6] = assay: Long-term (91-day) safety assessment study in rats; format: in vivo, rat
Source text: These changes were not associated with any gross clinical abnormality.

dogs [7] = assay: 91-day oral study in dogs; format: in vivo, dog
human patients = assay: Single, escalating dose human clinical safety study; format: in vivo; settings: oral, 50 mg BID, 100 mg BID, 200 mg BID and 400 mg BID
native bovine PDE5 = native bovine PDE5 (Bos taurus, UniProt Q28156); settings: read-out: Kd of cGMP binding; cited from earlier work
PKG = PKG activity assay on lysates of drug-treated SW480 colon cancer cells (32P phosphorylation of PDE5/GST substrate); format: cell-based, human; settings: SW480 cells treated 48 hrs; exisulind 200, 400, 600 μM, E4021 0.1, 1, 10 μM; assay with and without added cGMP
Experimental: A compound that inhibits all these types of PDE is desirable, accordingly. Below, we provide examples of such PDE-inhibiting compounds.
SW 480 is known to contain the APC mutation. About 5 million SW480 cells in RPMI 5% serum are added to each of 8 dishes:
2-10 cm dishes - - - 30 μL DMSO vehicle control (without drug),
3-10 cm dishes - - - 200 μM, 400 μM, 600 μM exisulind in DMSO, and
The dishes are incubated for 48 hrs at 37° C. in 5% CO2 incubator.
The liquid media are aspirated from the dishes (the cells will attach themselves to the dishes). The attached cells are washed in each dish with cold PBS, and 200 μL cell lysis buffer (i.e., 50 mM Tris-HCl, 1% NP-40, 150 mM NaCl, 1 mM EDTA, 1 mM Na3VO4, 1 mM NaF, 500 μM IBMX with proteinase inhibitors) is added to each dish. Immediately after the cell lysis buffer is added, the lysed cells are collected by scraping the cells off each dish. The cell lysate from each dish is transferred to a microfuge tube, and the microfuge tubes are incubated at 4° C. for 15 minutes while gently agitating the microfuge tubes to allow the cells to lyse completely. […]
For each control or drug cell lysate sample to be evaluated, the reaction is started by adding phosphorylation buffer containing 10 μCi ^32P-γ-ATP solution (200 μM ATP, 4.5 mM MgCl; 5 mM KH2PO4; 5 mM K2HPO4;) to each mixture. […]

[8] = 28 days, 50, 500 and 2000 mg/kg/day
[9] = 91 days, highest dose group (300 mg/kg/day)

## CC1=C(CC(=O)NCc2ccccc2)c2cc(F)ccc2/C1=C\c1ccncc1 [Example 38, (Z)-5-Fluoro-2-Methyl-(4-Pyridylidene)-3-(N-Benzyl) Indenylacetamide Hydrochloride]
GSK3β
  GSK3β inactivation by Ser9 phosphorylation: inactivated in vivo by phosphorylation of its Ser9
PKG1β
  PKG1 induction: PKG1 induction in a dose-dependent manner
[1]
  competition with cGMP for the cGMP binding sites: does not bind to the cGMP-binding site of PDE5
PDE 5
  competitive binding with cGMP to PDE5: does competitively (with cGMP) bind to PDE 5
PDE1
  IC50: 3 µM
PDE4
  IC50: 6 µM
Rats [2]; ip, 1000 mg/kg
  body weight gain: reduced body weight gain
  necropsy findings: mesenteric adhesions seen in some animals
Rats [2]; po, 2000 mg/kg
  body weight gains: slightly reduced
Dogs [3]; 1000 mg/kg
  signs of toxicity: no signs of toxicity
Dogs [3]; 1000 mg/kg/day
  signs of drug-related effects: At no time in either dosing phase were any obvious signs of drug-related effects observed
Rats [4]; 50 mg/kg/day
  signs of toxicity: no observable signs of toxicity
Rats [4]; 500 mg/kg/day
  treatment-related effects: an increase in absolute and relative liver weights in female rats
Rats [4]; 2000 mg/kg/day
  treatment-related effects: labored breathing and/or abnormal respiratory sounds, decreased weights gains and food consumption in male rats, and increased liver weights in female rats
Rats [4]; any dose level (50, 500, 2000 mg/kg/day)
  hematology, blood chemistry, microscopic pathology: No hematological or blood chemistry changes nor any microscopic pathology changes
Rats [5]; 28 days
  macroscopic tissue changes at necropsy: No macroscopic tissue changes
Rats [5]; 28 days, 500 mg/kg/day
  histopathological evaluation of tissues: one female at 500 mg/kg/day had increased mitotic figures in the thyroid gland
Rats [5]; 28 days, 2000 mg/kg/day
  liver weights: statistically significant increase in liver weights
  thyroid weights: statistically significant increases in thyroid weights
Rats [5]; [8]
  body weight changes, ophthalmoscopic examinations, hematological and blood chemistry values, urinalysis: unremarkable
  clinical observations: no abnormal clinical observations
Rats [5]; 28 days, 50 and 500 mg/kg/day
  liver and thyroid weight increases at the lower doses: not statistically significant
Rats [5]; 28 days, generally limited to a small number of animals at 2000 mg/kg/day
  histopathological evaluation of tissues: traces of follicular cell hypertrophy, increased numbers of mitotic figures (suggestive of possible cell proliferation) in the thyroid gland and mild centrilobular hypertrophy in the liver
Rats [6]; 91 days
  clinical biochemistry and hematology: no changes in clinical biochemistry and hematology were evident
Rats [6]; 91 days, 500 mg/kg/day
  thyroid microscopy: follicular cell hypertrophy
Rats [6]; 91 days, 200 and 500 mg/kg/day
  kidney microscopy: increase in accumulation of hyalin droplets in the kidneys
  liver microscopy: slight hepatocellular hypertrophy
Rats [6]; 91 days, males and females at 200 and 500 mg/kg/day
  liver and thyroid/parathyroid weights: dose-related trend to increased liver and thyroid/parathyroid weights
Rats [6]; oral, 91 consecutive days, 50, 200 and 500 mg/kg/day
  toxicological effects overall: did not produce any major toxicological effects
Dogs [7]; 91 days oral
  route of elimination (suggested by feces colour): most of Compound 38 was being eliminated via the feces
Dogs [7]; 91 days, 150 and 300 mg/kg/day
  feces observation: Orange discoloration of the feces
Dogs [7]; 91 days, highest dose group
  liver microscopy: no microscopic alterations
Dogs [7]; [9]
  body weights: Slightly lowered body weights
  liver weights: increased liver weights
Dogs [7]; oral, 91 consecutive days, 50, 150 and 300 mg/kg/day
  toxicological effects overall: no toxicological effects
Human patients
  side effects: no significant side effects at any dose

## Nc1nc2c(ncn2[C@@H]2O[C@@H]3COP(=O)(O)O[C@H]3[C@H]2O)c(=O)[nH]1 [cGMP, cyclic 3′,5′-guanosine monophosphate]
[1]
  binding of cGMP to the fusion protein: specifically bound to GST-cGB-PDE5 protein
[1]; read-out: Kd of cGMP binding, two cGMP binding sites
  Kd: 1.6 ± 0.2 µM
Native bovine PDE5
  Kd: 1.3 µM

## O=C([O-])C1CCN(c2nc(NCc3ccc4c(c3)OCO4)c3cc(Cl)ccc3n2)CC1.[Na+] [Example E4021]
PKG
  PKG activity relative to control: do not exhibit PKG activation relative to control
[1]
  competition with cGMP for the cGMP binding sites: None of the PDE5 inhibitors showed any competition with cGMP in binding
